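Compound exposure: 48 hours, 5 concentrations, 96-well plates. TGI: total growth inhibition.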
Assays:
Test in all cases: growth of human tumour cells (NCI), 48 h
[1] = system: 786-0 renal
[2] = system: A498 renal
[3] = system: A549 NSCLC
[4] = system: ACHN renal
[5] = system: BT-549 breast
[6] = system: CAKI-1 renal
[7] = system: CCRF-CEM leukemia
[8] = system: COLO 205 colon
[9] = system: DU-145 prostate
[10] = system: EKVX NSCLC
[11] = system: HCT-116 colon
[12] = system: HCT-15 colon
[13] = system: HL-60(TB) leukemia
[14] = system: HOP-62 NSCLC
[15] = system: HS 578T breast
[16] = system: HT29 colon
[17] = system: IGROV1 ovarian
[18] = system: K-562 leukemia
[19] = system: KM12 colon
[20] = system: LOX IMVI melanoma
[21] = system: M14 melanoma
[22] = system: MCF7 breast
[23] = system: MDA-MB-231 breast
[24] = system: MDA-MB-435
[25] = system: MDA-N
[26] = system: MOLT-4 leukemia
[27] = system: NCI-H226 lung
[28] = system: NCI-H23 lung
[29] = system: NCI-H460 lung
[30] = system: NCI-H522 lung
[31] = system: NCI/ADR-RES ovarian
[32] = system: OVCAR-3 ovarian
[33] = system: OVCAR-4 ovarian
[34] = system: OVCAR-5 ovarian
[35] = system: OVCAR-8 ovarian
[36] = system: PC-3 prostate
[37] = system: RPMI-8226 leukemia
[38] = system: SF-268 CNS
[39] = system: SF-295 CNS
[40] = system: SF-539 CNS
[41] = system: SK-MEL-2 melanoma
[42] = system: SK-MEL-28 melanoma
[43] = system: SK-MEL-5 melanoma
[44] = system: SK-OV-3 ovarian
[45] = system: SN12C renal
[46] = system: SNB-19 CNS
[47] = system: SNB-75 CNS
[48] = system: SR leukemia
[49] = system: SW-620 colon
[50] = system: T-47D breast
[51] = system: TK-10 renal
[52] = system: U251 CNS
[53] = system: UACC-257 melanoma
[54] = system: UACC-62 melanoma
[55] = system: UO-31 renal
[56] = system: HOP-92 NSCLC
[57] = system: MALME-3M melanoma
[58] = system: RXF 393 renal
[59] = system: HCC-2998 colon

CC1COC(c2cn[nH]c2C(N)=O)C1O (configuration not stated)
TGI [1]: > 100 µM
TGI [2]: > 100 µM
TGI [3]: > 100 µM
TGI [4]: > 100 µM
TGI [5]: > 100 µM
TGI [6]: > 100 µM
TGI [7]: > 100 µM
TGI [8]: > 100 µM
TGI [9]: > 100 µM
TGI [10]: > 100 µM
TGI [11]: > 100 µM
TGI [12]: > 100 µM
TGI [13]: > 100 µM
TGI [14]: > 100 µM
TGI [15]: > 100 µM
TGI [16]: > 100 µM
TGI [17]: > 100 µM
TGI [18]: > 100 µM
TGI [19]: > 100 µM
TGI [20]: > 100 µM
TGI [21]: > 100 µM
TGI [22]: > 100 µM
TGI [23]: > 100 µM
TGI [24]: > 100 µM
TGI [25]: > 100 µM
TGI [26]: > 100 µM
TGI [27]: > 100 µM
TGI [28]: > 100 µM
TGI [29]: > 100 µM
TGI [30]: > 100 µM
TGI [31]: > 100 µM
TGI [32]: > 100 µM
TGI [33]: > 100 µM
TGI [34]: > 100 µM
TGI [35]: > 100 µM
TGI [36]: > 100 µM
TGI [37]: > 100 µM
TGI [38]: > 100 µM
TGI [39]: > 100 µM
TGI [40]: > 100 µM
TGI [41]: > 100 µM
TGI [42]: > 100 µM
TGI [43]: > 100 µM
TGI [44]: > 100 µM
TGI [45]: > 100 µM
TGI [46]: > 100 µM
TGI [47]: > 100 µM
TGI [48]: > 100 µM
TGI [49]: > 100 µM
TGI [50]: > 100 µM
TGI [51]: > 100 µM
TGI [52]: > 100 µM
TGI [53]: > 100 µM
TGI [54]: > 100 µM
TGI [55]: > 100 µM

NCCC1([N+](=O)[O-])C=CN=CC1 (configuration not stated)
TGI [1]: > 100 µM
TGI [2]: > 100 µM
TGI [3]: > 100 µM
TGI [4]: > 100 µM
TGI [5]: > 100 µM
TGI [6]: > 100 µM
TGI [7]: > 100 µM
TGI [8]: > 100 µM
TGI [9]: > 100 µM
TGI [10]: > 100 µM
TGI [11]: > 100 µM
TGI [12]: > 100 µM
TGI [13]: > 100 µM
TGI [56]: 26.8 µM
TGI [15]: > 100 µM
TGI [16]: > 100 µM
TGI [17]: > 100 µM
TGI [18]: > 100 µM
TGI [19]: > 100 µM
TGI [21]: > 100 µM
TGI [57]: > 100 µM
TGI [23]: > 100 µM
TGI [24]: > 100 µM
TGI [25]: > 100 µM
TGI [26]: > 100 µM
TGI [27]: > 100 µM
TGI [28]: > 100 µM
TGI [29]: > 100 µM
TGI [30]: > 100 µM
TGI [31]: > 100 µM
TGI [33]: > 100 µM
TGI [34]: > 100 µM
TGI [35]: > 100 µM
TGI [36]: > 100 µM
TGI [37]: > 100 µM
TGI [58]: > 100 µM
TGI [38]: > 100 µM
TGI [39]: > 100 µM
TGI [40]: > 100 µM
TGI [41]: > 100 µM
TGI [42]: > 100 µM
TGI [43]: > 100 µM
TGI [44]: > 100 µM
TGI [45]: > 100 µM
TGI [46]: > 100 µM
TGI [47]: > 100 µM
TGI [48]: > 100 µM
TGI [49]: > 100 µM
TGI [50]: > 100 µM
TGI [51]: > 100 µM
TGI [52]: > 100 µM
TGI [53]: > 100 µM
TGI [54]: > 100 µM
TGI [55]: > 100 µM

COC(=O)[C@@H]1CCc2nc3ccccc3c(=O)n21
TGI [1]: > 100 µM
TGI [2]: > 100 µM
TGI [3]: > 100 µM
TGI [4]: > 100 µM
TGI [5]: > 100 µM
TGI [6]: > 100 µM
TGI [7]: > 100 µM
TGI [8]: > 100 µM
TGI [9]: > 100 µM
TGI [10]: > 100 µM
TGI [59]: > 100 µM
TGI [11]: > 100 µM
TGI [12]: > 100 µM
TGI [13]: > 100 µM
TGI [14]: > 100 µM
TGI [56]: > 100 µM
TGI [15]: > 100 µM
TGI [16]: > 100 µM
TGI [17]: > 100 µM
TGI [18]: > 100 µM
TGI [19]: > 100 µM
TGI [20]: > 100 µM
TGI [21]: > 100 µM
TGI [23]: > 100 µM
TGI [24]: > 100 µM
TGI [25]: > 100 µM
TGI [26]: > 100 µM
TGI [27]: > 100 µM
TGI [28]: > 100 µM
TGI [29]: > 100 µM
TGI [30]: > 100 µM
TGI [31]: > 100 µM
TGI [32]: > 100 µM
TGI [33]: > 100 µM
TGI [34]: > 100 µM
TGI [35]: > 100 µM
TGI [37]: > 100 µM
TGI [38]: > 100 µM
TGI [39]: > 100 µM
TGI [41]: > 100 µM
TGI [42]: > 100 µM
TGI [43]: > 100 µM
TGI [44]: > 100 µM
TGI [45]: > 100 µM
TGI [47]: > 100 µM
TGI [48]: > 100 µM
TGI [49]: > 100 µM
TGI [50]: > 100 µM
TGI [51]: > 100 µM
TGI [52]: > 100 µM
TGI [53]: > 100 µM
TGI [54]: > 100 µM
TGI [55]: > 100 µM

From PubChem BioAssay (NCI)
